The results in this text go back to ChEMBL document CHEMBL1130255, “Intensely cytotoxic anthracycline prodrugs: glucuronides” (J Med Chem, 1997).

As usually defined, the half-life is the time needed for the level to fall by half in the phase considered.

The nature of series [1]: Half-life when incubated at 37 C in 0.05 M phosphate buffer, pH 7.4, the concentration of 12 uM,. The format is ADME.
Another series concerns glucuronidase. As to the kind of experiment: Half-life in the presence of Escherichia coli -glucuronidase. The class given is ADME. Conditions: Escherichia coli glucuronidase enzyme.

For the compound `CCOC(CCCN)O[C@@H]1O[C@H](C(=O)[O-])[C@@H](O)[C@H](O)[C@H]1O.[Na+]` (some centres not stated), the half-life at 12 µM in series [1] was 30 h. Besides, the half-life with glucuronidase is 1.7 h.
